Measurements as given in patent US11213516B2, “Intravaginally applicable devices comprising antiviral compounds” (AICURIS ANTI-INFECTIVE CURES GMBH, priority 2017, dated 2022).
“And” between values parts separate entries of the source, which are not always exact repeats. Equal values may be shown once.

Assays:
[1] = Vaginal tissue (biopsy) concentration after intravaginal administration of vaginal ring; assay type: in vivo, Cynomolgus monkeys; conditions: 6-fold higher dose; Day 28
Protocol: (§1) The study was performed in four single dose phases with 28-day sampling period after Phases 1 and 2 (7-day washout period between doses). Vaginal rings were investigated for Pritelivir free base and Pritelivir mesylate salt at two dose levels per formulation. The test items were applied as vaginal ring in Phases 1 and 2 to female monkeys. The study design is below in the Table 3.
(§2) Vulval and vaginal biopsies were taken from all animals at the following times in relation to dosing.
(§3) For the sampling biopsies were taken with a suitable biopsy instrument. Biopsy samples were snap frozen on dry ice following collection and stored deep frozen (−20° C. or below) until analysis.
(§4) After suitable dilution, plasma and vaginal samples were analyzed on UPLC system Waters Acquity UPLC-HSS PFP column with 1.8 μm particles (100×2.1 mm) by gradient elution using 0.1% formic acid and methanol containing 0.1% formic acid. For detection, a time-of-flight mass spectrometer (Xevo GS-2 QTOF, Waters) was used operating in positive ionization mode (MSe analysis). The samples were analyzed for their content of Pritelivir free base.
Vaginal and vulval biopsies were taken 28 Days after administration of intravaginal rings. As biopsies were not weighed prior extraction, weights were estimated based on data from similar investigations using the same settings for biopsies. […]

[2] = In vitro release from matrix-type silicone elastomer vaginal rings; assay type: physicochemical; conditions: isopropanol/H2O, 37° C.
Protocol: HPLC analysis was conducted using an Agilent 1200 Series HPLC system, consisting of a quaternary HPLC pump, an auto sampler, an in-line Degasser AF Unit, a dual λ absorbance detector, and a column heater. A BDS Hypersil C18 (Thermo Scientific) column (length 150 mm, id 4.6 mm, particle size 3 μm) was used. The mobile phase comprised 45% of 1% w/v glacial acetic acid and 55% methanol pumped isocratically at a flow rate of 1 mL/min. The sample injection volume was 25 μL, the column temperature was 25° C., and detection was performed at 280 nm. Run time for the method was 5 min
Human-sized (56 mm or ×7.6 mm id), matrix-type, silicone elastomer vaginal rings containing either 25 mg or 400 mg of Pritelivir were manufactured by reaction injection molding of drug+silicone mixes. For the 25 mg rings, 272 mg Pritelivir free base or Pritelivir mesylate salt was weighed into a polypropylene Speedmixer container along with DDU-4320 silicone elastomer Part A (40 g) and Part B (40 g). After mixing (Speedmixer DAK 150 FVZ-K; 3000 rpm for 30 sec), the mixture was transferred to a 60 mL disposable plastic syringe and injected into pre-heated (90° C.) custom, two-cavity ring molds fitted to a laboratory-scale injection molding machine. After 3 minutes, the cured rings were removed from the molds. For the 400 mg rings, 4325 mg of Pritelivir free base or Pritelivir mesylate salt was weighed. Four samples of each ring type were manufactured.
Pritelivir rings were individually placed into stoppered glass flasks containing 100 mL isopropanol/H2O. The flasks were placed in a shaking orbital shaker (37° C., 60 rpm). The release medium was sampled (˜5 mL) every 24 h over a fourteen day period, with complete replacement of the 100 mL release medium at each sampling point to maintain sink conditions. Quantification of Pritelivir free base or Pritelivir mesylate salt concentrations in the samples was performed using the HPLC-UV method.

[3] = Safety and tolerance of Pritelivir loaded rings (clinical signs, body weights); assay type: in vivo, Cynomolgus monkeys; conditions: single vaginal doses as rings: 40 or 240 mg free base, 49.6 or 297 mg mesylate
Protocol: as §1
The study was designed to obtain information on the time-course of unchanged test compound concentrations in plasma and vaginal fluid/tissue, following single intravaginal administration of rings to female Cynomolgus monkeys. Objectives of this study were to determine the safety and tolerance of Pritelivir loaded rings, as well as systemic and local exposure (plasma, vaginal fluid and vaginal and vulval tissue, respectively). Local exposures were compared with in vitro efficacy data of Pritelivir to get an idea on initial pharmacokinetic/pharmacodynamic (PK/PD) parameters for vaginal rings, i.e. to assess the potential ability of a Pritelivir loaded ring to suppress viral replication in the target tissue. Table 9 gives an overview on the EC50 values of Pritelivir on HSV-1 and HSV-2 Data source: Field, H. J., et al., Baseline sensitivity of HSV-1 and HSV-2 clinical isolates and defined acyclovir-resistant strains to the helicase-primase inhibitor pritelivir. Antiviral Res, 2013. 100(2): p. 297-9. […]

[4] = Vulval tissue (biopsy) concentration after intravaginal administration of vaginal ring; assay type: in vivo, Cynomolgus monkeys; conditions: ring 40 mg free base; Phase 1; Day 28; per animal; biopsy weight estimated
Protocol: as §1, §2, §3, §4
Vaginal and vulval biopsies were taken 28 Days after administration of intravaginal rings. As biopsies were not weighed prior extraction, weights were estimated based on data from similar investigations using the same settings for biopsies. From this study minimum, maximum, and mean biopsy weight was used for the calculation. These biopsy weights ranged from 0.7 to 6.3 mg, mean 2.95 mg. For all calculations it was assumed that 1 kg tissue is equal to 1 L water.

Q: Which results are given for `Cc1nc(N(C)C(=O)Cc2ccc(-c3ccccn3)cc2)sc1S(N)(=O)=O` [Pritelivir free base]?
A: Increase of vaginal tissue concentrations, Phase 2 vs Phase 1 [1]: 2 fold; Cumulative Day 14 release ([2]; 25 mg matrix-type ring): 604.13 µg; Mean Day 1 release ([2]; 25 mg matrix-type ring): 122.17 µg; Mean Day 14 release ([2]; 25 mg matrix-type ring): 24.77 µg; Release rate ([2]; 25 mg matrix-type ring): 177.0 µg/day; Cumulative Day 14 release ([2]; 400 mg matrix-type ring): 2,495.52 μg; Mean Day 1 release ([2]; 400 mg matrix-type ring): 443.45 µg; Mean Day 14 release ([2]; 400 mg matrix-type ring): 102.16 µg; Release rate ([2]; 400 mg matrix-type ring): 752.5 µg/day; Adverse findings for clinical signs or body weights [3]: did not result in any adverse findings; Vulval tissue concentration of Pritelivir free base, Max [4]: <2.0 µg/g and 0.134 µg/g and 0.742 µg/g; Vulval tissue concentration of Pritelivir free base, Mean [4]: <2.0 µg/g and 0.0318 µg/g and 0.176 µg/g; Vulval tissue concentration of Pritelivir free base, Min [4]: <2.0 µg/g and 0.0149 µg/g and 0.0825 µg/g
